Source: patent EP4818194A1, “CHEMICALLY MODIFIED POLYPEPTIDE” (priority 2023, dated 2025)
Where a SMILES comes first, the peptide text is derived from it. Where no end group is shown, it is not given here. [ ]: non-standard residue; d: D form. pY = N[C@@H](Cc1ccc(OP(=O)(O)O)cc1)C(=O)O; NMeY = CN[C@@H](Cc1ccc(O)cc1)C(=O)O; Tle = CC(C)(C)[C@H](N)C(=O)O; Aib = CC(C)(N)C(=O)O

Tests used:
[1] = Pharmacokinetic characteristics in rats after intravenous administration (plasma, LC-MS/MS); format: in vivo; details: rat, SD rats, tail vein, 10 mg/kg; for Vd: read-out: Vss
Experimental: Intravenous administration: Three SD rats per group were administered the compounds of Example 1, Example 2, Example 3, Example 6, Example 7, Example 17, and Example 19 via the tail vein, respectively, at a dose of 10 mg/kg. all SD rats were allowed free access to food and water after administration. Plasma was collected 3 min, 10 min, 30 min, 1 h, 2 h, 6 h, 10 h, and 24 h after administration, with 3 rats per time point.
Sample processing: Whole blood was anticoagulated with EDTA-K2. Within 30 minutes of collection, the blood was centrifuged at 3000g for 10 minutes at 2-8°C. After centrifugation, the separated plasma was transferred to new 1.5 mL centrifuge tubes and stored at -80°C.
Analytical method: The concentrations of each compounds in rat plasma were determined by LC-MS/MS using Shimadzu LC30AD and AB Sciex QTRAP 6500+instruments. The relevant pharmacokinetic parameters after administration were calculated. Table 5: Pharmacokinetic parameters after administration

PC-12 cells = format: cell-based; details: for Normalized cell viability (%): PC-12 cells, 10 nM polypeptide pretreatment for 30 minutes, then glutamate stimulation for 24 hours, normalized to positive control MK-801 and glutamate group
Experimental: PC-12 cells (a […] cell line derived from rat adrenal medulla) were cultured in DMEM/F12 complete medium until eaching 80-90% confluence. The cells were then digested, collected, resuspended, and seeded at density of 5 × 10^4 cells per well in a 24-well plate precoated with coverslips. Following 26 hours of cell culture, excitotoxic cell death was induced by glutamate stimulation. For model establishment: an appropriate amount of glutamate was weighed and dissolved in DMEM/F12 medium to prepare a stock solution. After filtration, the stock solution was diluted with culture medium and administered to the cells via medium replacement. The cells were further incubated for 24 hours after administration.
Prior to glutamate modeling, cells incubated as described in the previous step were pretreated with 10 nM of the polypeptide compound according to the present application for 30 minutes, followed by glutamate stimulation.
Cells treated with the polypeptide compound according to the present application were stained with propidium iodide to assess cell death. After discarding the culture medium, the cells were washed with PBS, and propidium iodide/Hoechst was added. After incubating for 30 minutes, the cells were removed and the staining solution was discarded. After washing with PBS, the cells were fixed and mounted, and subjected to image acquisition under a fluorescence microscope. The number of propidium iodide-positive cells and Hoechst-positive cells in the acquired images was counted to calculate the cell viability. MK-801 was used as the positive control compound. The normalized cell viability was calculated using the following formula: (cell viability of the compound group - cell viability of the glutamate group) / (cell viability of the positive control group - cell viability of the glutamate group) × 100%.
Based on the above dose-response studies of the compound, the inhibitory effects of different small-molecule compounds at the same dose (10 nM) against excitotoxic death in PC-12 neurons cells were further compared. […]

Row | Compound | MRT [1] | half-life [1] | Vd [1] | EC50 (PC-12 cells; 26 h) | Normalized cell viability (%) (PC-12 cells)
1 | YGRKKRRQRRRKKNRNKLRRQHSY-NH2 [Example 6] | 1.65 h | 1.23 h | 2.53 L/kg |  | 
2 | CN[C@@H](Cc1ccc(O)cc1)C(=O)NC(C)(C)C(=O)N[C@@H](CCCNC(=N)N)C(=O)N[C@@H](CCCCN)C(=O)N[C@@H](CCCCN)C(=O)N[C@@H](CCCNC(=N)N)C(=O)N[C@@H](CCCNC(=N)N)C(=O)N[C@@H](CCC(=O)O)C(=O)N[C@@H](CCCNC(=N)N)C(=O)N[C@@H](CCCNC(=N)N)C(=O)N[C@@H](CCCNC(=N)N)C(=O)N[C@@H](CCCCN)C(=O)N[C@@H](CCCCN)C(=O)N[C@@H](CC(=O)O)C(=O)N[C@@H](CCCNC(=N)N)C(=O)N[C@@H](CC(=O)O)C(=O)N[C@@H](CCCCN)C(=O)N[C@H](C(=O)N[C@@H](CCCNC(=N)N)C(=O)N[C@@H](CCCNC(=N)N)C(=O)N[C@@H](CCC(=O)O)C(=O)N[C@@H](Cc1c[nH]cn1)C(=O)N[C@@H](CO)C(=O)N[C@@H](Cc1ccc(O)cc1)C(N)=O)C(C)(C)C [Example 24, Me-YAibRKKRRERRRKKDRDKTleRREHSY-NH2] (H-[NMeY][Aib]RKKRRERRRKKDRDK[Tle]RREHSY-NH2) |  |  |  | 1.35 nM | 
3 | YGRKKRRERRRKKDRNKLRRQHSY [Example 17] | 2.29 h | 1.66 h | 23.1 L/kg |  | 
4 | CN[C@@H](Cc1ccc(O)cc1)C(=O)NCC(=O)N[C@@H](CCCNC(=N)N)C(=O)N[C@@H](CCCCN)C(=O)N[C@@H](CCCCN)C(=O)N[C@@H](CCCNC(=N)N)C(=O)N[C@@H](CCCNC(=N)N)C(=O)N[C@@H](CCC(N)=O)C(=O)N[C@@H](CCCNC(=N)N)C(=O)N[C@@H](CCCNC(=N)N)C(=O)N[C@@H](CCCNC(=N)N)C(=O)N[C@@H](CCCCN)C(=O)N[C@@H](CCCCN)C(=O)N[C@@H](CC(N)=O)C(=O)N[C@@H](CCCNC(=N)N)C(=O)N[C@@H](CC(N)=O)C(=O)N[C@@H](CCCCN)C(=O)N[C@@H](CC(C)C)C(=O)N[C@@H](CCCNC(=N)N)C(=O)N[C@@H](CCCNC(=N)N)C(=O)N[C@@H](CCC(N)=O)C(=O)N[C@@H](Cc1c[nH]cn1)C(=O)N[C@@H](CO)C(=O)N[C@@H](Cc1ccc(O)cc1)C(=O)O [Example 2] (H-[NMeY]GRKKRRQRRRKKNRNKLRRQHSY-OH) | 1.84 h | 1.73 h | 3.94 L/kg |  | 
5 | Ac-YGRKKRRQRRRKKNRNKLRRQHSY [Example 4] |  |  |  |  | 85.00%
6 | CN[C@@H](Cc1ccc(O)cc1)C(=O)NCC(=O)N[C@@H](CCCNC(=N)N)C(=O)N[C@@H](CCCCN)C(=O)N[C@@H](CCCCN)C(=O)N[C@@H](CCCNC(=N)N)C(=O)N[C@@H](CCCNC(=N)N)C(=O)N[C@@H](CCC(=O)O)C(=O)N[C@@H](CCCNC(=N)N)C(=O)N[C@@H](CCCNC(=N)N)C(=O)N[C@@H](CCCNC(=N)N)C(=O)N[C@@H](CCCCN)C(=O)N[C@@H](CCCCN)C(=O)N[C@@H](CC(=O)O)C(=O)N[C@@H](CCCNC(=N)N)C(=O)N[C@@H](CC(=O)O)C(=O)N[C@@H](CCCCN)C(=O)N[C@@H](CC(C)C)C(=O)N[C@@H](CCCNC(=N)N)C(=O)N[C@@H](CCCNC(=N)N)C(=O)N[C@@H](CCC(=O)O)C(=O)N[C@@H](Cc1c[nH]cn1)C(=O)N[C@@H](CO)C(=O)N[C@@H](Cc1ccc(O)cc1)C(N)=O [Example 19] (H-[NMeY]GRKKRRERRRKKDRDKLRREHSY-NH2) | 1.73 h | 1.16 h | 9.11 L/kg |  | 
7 | CC(C)C[C@H](NC(=O)[C@H](CCCCN)NC(=O)[C@H](CC(N)=O)NC(=O)[C@H](CCCNC(=N)N)NC(=O)[C@H](CC(N)=O)NC(=O)[C@H](CCCCN)NC(=O)[C@H](CCCCN)NC(=O)[C@H](CCCNC(=N)N)NC(=O)[C@H](CCCNC(=N)N)NC(=O)[C@H](CCCNC(=N)N)NC(=O)[C@H](CCC(N)=O)NC(=O)[C@H](CCCNC(=N)N)NC(=O)[C@H](CCCNC(=N)N)NC(=O)[C@H](CCCCN)NC(=O)[C@H](CCCCN)NC(=O)[C@H](CCCNC(=N)N)NC(=O)CNC(=O)[C@@H](N)Cc1ccc(OP(=O)(O)O)cc1)C(=O)N[C@@H](CCCNC(=N)N)C(=O)N[C@@H](CCCNC(=N)N)C(=O)N[C@@H](CCC(N)=O)C(=O)N[C@@H](Cc1c[nH]cn1)C(=O)N[C@@H](CO)C(=O)N[C@@H](Cc1ccc(O)cc1)C(=O)O [Example 3] (H-[pY]GRKKRRQRRRKKNRNKLRRQHSY-OH) | 1.71 h | 1.28 h | 7.9 L/kg |  | 
8 | YGRKKRRQRRRKKNRNKLRRQHSY [Example 1, reference compound] | 0.87 h | 0.76 h | 1.29 L/kg |  | 41.00%
9 | Ac-YGRKKRRQRRRKKNRNKLRRQHSY-NH2 [Example 7] | 1.93 h | 1.51 h | 3.58 L/kg |  | 
